± gives the standard deviation of the averaged measurements.
Assays:
DECITABINE = compound: Nc1ncn([C@H]2C[C@H](O)[C@@H](CO)O2)c(=O)n1 [DECITABINE]; experiment: surviving fraction relative to DMSO-only wells; higher = less growth inhibition; details: exposure time: 5 days
Outline: (§1)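 Lines were retained only if, across three screens, replicate Pearson r was >0.7 and median Z' was >0.3. Viability was measured as CellTiter-Glo luminescence and reported as surviving fraction relative to the median of DMSO-only wells. Readings followed 10 minutes at room temperature, after log-phase tumour cells seeded at 250–500 per well in 384-well plates had been exposed, from 24 hours after seeding, continuously for five days to inhibitors at 0.5, 1, 5, 10, 50, 100, 500 and 1000 nM.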

[1] = compound: CCN(CC)CCCCNc1ncc2cc(-c3cc(OC)cc(OC)c3)c(NC(=O)NC(C)(C)C)nc2n1; experiment: as above; details: exposure time: 5 days
Outline: as §1

| Test System | surviving fraction (DECITABINE; 0.5 nM) | surviving fraction (DECITABINE; 1 nM) | surviving fraction (DECITABINE; 5 nM) | surviving fraction (DECITABINE; 10 nM) | surviving fraction (DECITABINE; 50 nM) | surviving fraction (DECITABINE; 100 nM) | surviving fraction (DECITABINE; 500 nM) | surviving fraction (DECITABINE; 1000 nM) | surviving fraction ([1]; 0.5 nM) | surviving fraction ([1]; 1 nM) | surviving fraction ([1]; 5 nM) | surviving fraction ([1]; 10 nM) | surviving fraction ([1]; 50 nM) | surviving fraction ([1]; 100 nM) | surviving fraction ([1]; 500 nM) | surviving fraction ([1]; 1000 nM) |
| --- | --- | --- | --- | --- | --- | --- | --- | --- | --- | --- | --- | --- | --- | --- | --- | --- |
| SCC47 HEADNECK | 1.07 ± 0.084 | 1.08 ± 0.13 | 1.08 ± 0.012 | 1.09 ± 0.067 | 1.03 ± 0.058 | 1.03 ± 0.03 | 0.973 ± 0.028 | 0.863 ± 0.1 | 0.979 ± 0.033 | 0.993 ± 0.082 | 0.996 ± 0.05 | 1.07 ± 0.047 | 0.968 ± 0.079 | 1 ± 0.14 | 1.05 ± 0.067 | 0.995 ± 0.019 |
| SCC90 HEADNECK | 0.985 ± 0.073 | 0.995 ± 0.065 | 1.11 ± 0.075 | 1.03 ± 0.072 | 1.13 ± 0.074 | 1.11 ± 0.018 | 1.3 ± 0.25 | 1.05 ± 0.17 | 0.884 ± 0.044 | 0.96 ± 0.036 | 0.839 ± 0.18 | 0.951 ± 0.036 | 0.88 ± 0.049 | 0.961 ± 0.17 | 0.883 ± 0.17 | 0.814 ± 0.035 |
| SG27 HEADNECK | 1.17 ± 0.15 | 1.12 ± 0.06 | 1.15 ± 0.14 | 1.07 ± 0.14 | 1.2 ± 0.065 | 1.18 ± 0.14 | 1.11 ± 0.063 | 1.19 ± 0.16 | 0.947 ± 0.15 | 1.03 ± 0.087 | 1.01 ± 0.12 | 1.01 ± 0.086 | 0.879 ± 0.04 | 0.817 ± 0.032 | 0.784 ± 0.05 | 0.805 ± 0.047 |
| SG28 HEADNECK | 1.14 ± 0.054 | 1.28 ± 0.038 | 1.2 ± 0.062 | 1.06 ± 0.098 | 1.25 ± 0.14 | 1.11 ± 0.045 | 1.11 ± 0.13 | 1.065 ± 0.0021 | 1.04 ± 0.15 | 1.09 ± 0.076 | 1.03 ± 0.09 | 1.11 ± 0.034 | 0.968 ± 0.028 | 1.05 ± 0.1 | 0.967 ± 0.091 | 0.938 ± 0.11 |
| SG31 HEADNECK | 1.27 ± 0.12 | 1.2 ± 0.059 | 1.14 ± 0.083 | 1.13 ± 0.1 | 1.08 ± 0.04 | 0.952 ± 0.11 | 1.01 ± 0.13 | 0.909 ± 0.095 | 1.04 ± 0.055 | 0.949 ± 0.11 | 0.934 ± 0.15 | 0.932 ± 0.12 | 0.845 ± 0.12 | 0.997 ± 0.051 | 0.934 ± 0.069 | 0.934 ± 0.1 |
| SG32 HEADNECK | 1.25 ± 0.11 | 1.26 ± 0.16 | 1.12 ± 0.12 | 1.16 ± 0.067 | 1.25 ± 0.36 | 1.1 ± 0.14 | 0.908 ± 0.071 | 0.715 ± 0.064 | 1.03 ± 0.14 | 1.05 ± 0.086 | 1.15 ± 0.13 | 1.01 ± 0.16 | 0.859 ± 0.027 | 0.793 ± 0.0076 | 1.36 ± 0.92 | 0.884 ± 0.15 |
| SG43 HEADNECK | 1.02 ± 0.031 | 1.14 ± 0.16 | 0.953 ± 0.11 | 1.03 ± 0.48 | 0.835 ± 0.18 | 0.868 ± 0.2 | 0.812 ± 0.062 | 0.8 ± 0.049 | 0.9 ± 0.076 | 0.971 ± 0.053 | 0.974 ± 0.15 | 0.966 ± 0.095 | 0.85 ± 0.13 | 0.905 ± 0.24 | 0.95 ± 0.12 | 0.811 ± 0.16 |
| SIHA CERVIX | 1.08 ± 0.026 | 0.979 ± 0.052 | 1.08 ± 0.02 | 1.05 ± 0.055 | 1.07 ± 0.055 | 1.08 ± 0.085 | 0.983 ± 0.055 | 0.988 ± 0.11 | 0.945 ± 0.075 | 0.972 ± 0.043 | 1.07 ± 0.055 | 1.07 ± 0.051 | 0.908 ± 0.063 | 0.905 ± 0.098 | 0.776 ± 0.027 | 0.818 ± 0.013 |
| SJSA1 BONE | 0.512 ± 0.028 | 1.53 ± 0.038 | 1.63 ± 0.11 | 0.545 ± 0.031 | 1.55 ± 0.081 | 1.68 ± 0.022 | 1.73 ± 0.05 | 1.77 ± 0.053 | 1.04 ± 0.052 | 1.04 ± 0.026 | 1.04 ± 0.026 | 1.09 ± 0.034 | 1.08 ± 0.021 | 1.07 ± 0.038 | 1.023 ± 0.0089 | 1.04 ± 0.034 |
| SKBR3 BREAST | 1.02 ± 0.11 | 1.12 ± 0.0031 | 1.13 ± 0.035 | 0.959 ± 0.042 | 1.03 ± 0.094 | 1 ± 0.1 | 0.996 ± 0.017 | 0.931 ± 0.089 | 0.9 ± 0.11 | 0.967 ± 0.072 | 0.975 ± 0.22 | 0.851 ± 0.057 | 0.979 ± 0.13 | 0.992 ± 0.077 | 1 ± 0.05 | 0.848 ± 0.13 |
| SNU475 LIVER | 1.06 ± 0.024 | 1.05 ± 0.024 | 1.051 ± 0.0036 | 1.02 ± 0.026 | 1.03 ± 0.017 | 0.984 ± 0.038 | 1.03 ± 0.036 | 1.03 ± 0.032 | 0.785 ± 0.028 | 0.964 ± 0.053 | 0.894 ± 0.05 | 0.987 ± 0.027 | 0.916 ± 0.044 | 0.939 ± 0.019 | 0.906 ± 0.022 | 0.886 ± 0.029 |
| SUM44 BREAST | 1.15 ± 0.17 | 1.1 ± 0.16 | 1.17 ± 0.23 | 1.14 ± 0.17 | 1.31 ± 0.26 | 1.23 ± 0.15 | 1.13 ± 0.12 | 1.15 ± 0.069 | 0.956 ± 0.064 | 0.928 ± 0.04 | 1.03 ± 0.019 | 1.04 ± 0.087 | 1.04 ± 0.095 | 1.04 ± 0.094 | 0.985 ± 0.026 | 1.03 ± 0.037 |
| SUM149 BREAST | 1.11 ± 0.11 | 1.03 ± 0.13 | 0.845 ± 0.047 | 0.807 ± 0.09 | 0.366 ± 0.0027 | 0.359 ± 0.022 | 0.261 ± 0.0076 | 0.245 ± 0.012 | 0.881 ± 0.14 | 1.12 ± 0.057 | 0.998 ± 0.037 | 1.21 ± 0.049 | 1.03 ± 0.069 | 1.1 ± 0.13 | 1.01 ± 0.056 | 1.08 ± 0.14 |
| SUM149.B1*.S BREAST | 1.09 ± 0.037 | 1.03 ± 0.044 | 1.05 ± 0.06 | 0.98 ± 0.058 | 0.749 ± 0.062 | 0.66 ± 0.062 | 0.553 ± 0.043 | 0.496 ± 0.061 | 0.852 ± 0.049 | 1 ± 0.017 | 0.952 ± 0.024 | 1.02 ± 0.021 | 0.933 ± 0.029 | 1.06 ± 0.041 | 1.03 ± 0.011 | 1.08 ± 0.017 |
| SUM159 BREAST | 1.1 ± 0.024 | 1.079 ± 0.0093 | 1.09 ± 0.023 | 1.06 ± 0.017 | 1.05 ± 0.012 | 1.028 ± 0.004 | 1.03 ± 0.015 | 0.9957 ± 0.0076 | 1.14 ± 0.3 | 1.1 ± 0.2 | 1.18 ± 0.36 | 1.14 ± 0.26 | 1.12 ± 0.26 | 1.13 ± 0.23 | 1.11 ± 0.21 | 1.18 ± 0.3 |
| SYO1 SYNOVIAL | 0.991 ± 0.024 | 0.998 ± 0.021 | 0.933 ± 0.021 | 0.917 ± 0.022 | 0.663 ± 0.015 | 0.629 ± 0.013 | 0.439 ± 0.02 | 0.383 ± 0.0062 | 0.786 ± 0.081 | 0.961 ± 0.052 | 0.859 ± 0.044 | 0.868 ± 0.043 | 0.699 ± 0.016 | 0.727 ± 0.056 | 0.669 ± 0.055 | 0.653 ± 0.009 |
| T47D BREAST | 1.03 ± 0.049 | 1.06 ± 0.035 | 1.05 ± 0.029 | 1.04 ± 0.028 | 1.12 ± 0.049 | 1.08 ± 0.024 | 1.04 ± 0.049 | 1.06 ± 0.057 | 0.967 ± 0.03 | 1.02 ± 0.028 | 1.02 ± 0.047 | 1.01 ± 0.017 | 1.03 ± 0.023 | 1.02 ± 0.043 | 1.02 ± 0.054 | 1.08 ± 0.03 |
| U2OS BONE | 1.02 ± 0.043 | 1.01 ± 0.052 | 1.04 ± 0.054 | 1.01 ± 0.021 | 0.992 ± 0.029 | 0.902 ± 0.045 | 0.679 ± 0.055 | 0.699 ± 0.013 | 1 ± 0.011 | 0.994 ± 0.026 | 1.03 ± 0.045 | 1.01 ± 0.02 | 0.916 ± 0.012 | 0.825 ± 0.017 | 0.745 ± 0.049 | 0.739 ± 0.0095 |
| VCAP PROSTATE | 1.11 ± 0.099 | 1.17 ± 0.031 | 1.25 ± 0.14 | 1.18 ± 0.095 | 1.09 ± 0.035 | 1.09 ± 0.11 | 1.01 ± 0.094 | 0.875 ± 0.062 | 0.963 ± 0.068 | 1.07 ± 0.06 | 1.04 ± 0.047 | 1.1 ± 0.028 | 1.06 ± 0.034 | 1.12 ± 0.069 | 0.998 ± 0.059 | 1.01 ± 0.055 |
| VP229 BREAST | 1.09 ± 0.062 | 1.13 ± 0.093 | 0.996 ± 0.13 | 0.952 ± 0.11 | 0.966 ± 0.067 | 0.959 ± 0.028 | 0.871 ± 0.056 | 0.798 ± 0.097 | 1.15 ± 0.079 | 1.09 ± 0.031 | 1.1 ± 0.12 | 1.11 ± 0.028 | 1.22 ± 0.12 | 1.11 ± 0.13 | 1.22 ± 0.061 | 1.15 ± 0.11 |
| YAMATO SYNOVIAL | 1.26 ± 0.05 | 1.11 ± 0.081 | 1.17 ± 0.086 | 0.995 ± 0.098 | 1.02 ± 0.081 | 1.04 ± 0.034 | 0.907 ± 0.034 | 0.811 ± 0.035 | 0.852 ± 0.029 | 1.2 ± 0.13 | 1.19 ± 0.058 | 1.31 ± 0.062 | 1.14 ± 0.024 | 1.37 ± 0.037 | 1.2 ± 0.069 | 1.08 ± 0.088 |
| ZR751 BREAST | 1.21 ± 0.096 | 1.2 ± 0.073 | 1.22 ± 0.11 | 1.05 ± 0.16 | 0.988 ± 0.12 | 1.13 ± 0.12 | 0.865 ± 0.012 | 0.866 ± 0.059 | 0.946 ± 0.032 | 1.03 ± 0.063 | 0.954 ± 0.017 | 1.01 ± 0.19 | 0.912 ± 0.04 | 1.1 ± 0.11 | 1.01 ± 0.067 | 1.05 ± 0.12 |

Source: the supplement of paper PMC6045584
